According to patent publication US7425557B2, “Inhibitors of glycogen synthase kinase 3” (Novartis Vaccines and Diagnostics, Inc., priority 1998, dated 2008):

Molecular target: human GSK3β (Homo sapiens, UniProt P49841)
Experiment: Screening for GSK3 inhibitory activity using a cell-free assay
Format: biochemical
Details: read-out: IC50 with respect to GSK3
Outline: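 Compounds in DMSO were tested against human GSK3β over a three-hour kinase reaction. Radiolabeled phosphate transferred to the peptide was captured on streptavidin plates after EDTA/ATP stop and quantified by scintillation counting. Signal was plotted versus compound concentration.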

Chain of human GSK3β (P49841 whole entry): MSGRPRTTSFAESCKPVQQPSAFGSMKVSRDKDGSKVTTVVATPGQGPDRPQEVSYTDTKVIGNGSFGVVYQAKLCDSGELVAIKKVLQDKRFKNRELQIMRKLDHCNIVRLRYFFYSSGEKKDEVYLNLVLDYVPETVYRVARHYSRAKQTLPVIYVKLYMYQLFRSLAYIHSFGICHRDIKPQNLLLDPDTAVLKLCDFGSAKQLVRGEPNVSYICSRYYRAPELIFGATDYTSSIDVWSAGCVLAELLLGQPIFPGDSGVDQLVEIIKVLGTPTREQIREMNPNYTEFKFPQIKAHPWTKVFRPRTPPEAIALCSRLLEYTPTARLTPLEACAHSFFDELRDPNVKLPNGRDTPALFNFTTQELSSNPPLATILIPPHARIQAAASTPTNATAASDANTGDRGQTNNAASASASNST

Row | SMILES | IC50 [µM]
1 | CCOC(=O)c1c(CC)nc(NCCNc2ccccn2)nc1-c1ccc(C(N)=O)cc1 [ethyl 4-(4-carbamoylphenyl)-6-ethyl-2-{[2-(2-pyridylamino)ethyl]-amino}pyrimidine-5-carboxylate] | ≤ 10
2 | CCc1ccc(-c2nc(NCCNc3ccc(C#N)cn3)ccc2N2CCN(C)CC2=O)cc1 [6-[(2-{[6-(4-ethylphenyl)-5-(4-methyl-2-oxo-1-piperazinyl)-2-pyridinyl]amino}ethyl)amino]nicotinonitrile] | ≤ 10
3 | CCOC(=O)c1c(CC)nc(NCCNc2ccc(C(F)(F)F)cn2)nc1-c1ccc(C(N)=O)cc1 [ethyl 4-(4-carbamoylphenyl)-6-ethyl-2-[(2-{[5-(trifluoromethyl)(2-pyridyl)]amino}-ethyl)amino]pyrimidine-5-carboxylate] | ≤ 10
4 | NC(=O)c1ccc(-c2ccnc(NCc3ccc(-c4ccc(F)cc4)cc3)n2)cc1 [4-[2-({[4-(4-fluorophenyl)phenyl]methyl}amino)pyrimidin-4-yl]benzamide] | ≤ 10
5 | NC(=O)c1ccc(-c2ccnc(NCc3ccc(Cl)cc3Cl)n2)cc1 [4-(2-{[(2,4-dichlorophenyl)methyl]-amino}pyrimidin-4-yl)benzamide] | ≤ 10
6 | N#Cc1ccc(NCCNc2ncc(-c3ncc[nH]3)c(-c3ccc(Cl)cc3Cl)n2)nc1 [6-[(2-{[4-(2,4-dichlorophenyl)-5-imidazol-2-ylpyrimidin-2-yl]amino}ethyl)amino]pyridine-3-carbonitrile] | ≤ 1
7 | COc1ccc(CNc2nccc(-c3ccc(C(N)=O)cc3)n2)cc1 [4-(2-{[(4-methoxyphenyl)methyl]amino}pyrimidin-4-yl)benzamide] | ≤ 10
8 | O=C(NC1CC1c1ccccc1)c1ccc(-c2ccnc(NCCNc3ccc([N+](=O)[O-])cn3)n2)cc1 (stereo not shown) [{4-[2-({2-[(5-nitro(2-pyridyl))amino]ethyl}amino)pyrimidin-4-yl]phenyl}-N-(2-phenylcyclopropyl)-carboxamide] | ≤ 10
9 | CCCCOc1ccc(-c2nc(NCCNc3ccc([N+](=O)[O-])cn3)ncc2C(=O)OCC)cc1 [ethyl 4-(4-butoxyphenyl)-2-({2-[(5-nitro(2-pyridyl))amino]ethyl}amino)pyrimidine-5-carboxylate] | ≤ 10
10 | N#Cc1ccc(NCCNCc2ncc(-c3ncc[nH]3)c(-c3ccc(Cl)cc3Cl)n2)nc1 [6-[(2-{[4-(2,4-dichlorophenyl)-5-imidazol-2-ylpyrimidin-2-yl]methylamino}ethyl)amino]pyridine-3-carbonitrile] | ≤ 1
11 | O=C(NCc1cccc(Br)c1)c1ccc(-c2ccnc(NCCNc3ccc(C(F)(F)F)cn3)n2)cc1 [N-[(3-bromophenyl)methyl](4-{2-[(2-{[5-(trifluoromethyl)(2-pyridyl)]amino}ethyl)amino]pyrimidin-4-yl}phenyl)-carboxamide] | ≤ 10
12 | Oc1ccc(-c2ccnc(NCCCc3nc(Cl)c(Cl)[nH]3)n2)cc1 [4-(2-{[3-(4,5-dichloroimidazolyl)propyl]amino}pyrimidin-4-yl)phenol] | ≤ 1

Next, values leading:

Row | IC50 [µM] | SMILES
13 | ≤ 10 | CCOC(=O)c1cnc(NCCNc2ccc([N+](=O)[O-])cn2)nc1-c1ccc(C)c(C)c1 [ethyl 4-(3,4-dimethylphenyl)-2-[{2-[(5-nitro(2-pyridyl))amino]ethyl}amino)pyrimidine-5-carboxylate]
14 | ≤ 1 | N#Cc1ccc(-c2nc(NCCNc3ccc([N+](=O)[O-])cn3)ncc2C(=O)O)cc1 [4-(4-cyanophenyl)-2-({2-[(5-nitro(2-pyridyl))amino]ethyl}amino)pyrimidine-5-carboxylic acid]
15 | ≤ 1 | CCOC(=O)c1cnc(NCCNc2ccc([N+](=O)[O-])cn2)nc1-c1ccc(Br)cc1 [ethyl 4-(4-bromophenyl)-2-({2-[(5-nitro(2-pyridyl))amino]ethyl}amino)pyrimidine-5-carboxylate]
16 | ≤ 10 | COc1cccc(CNC(=O)c2ccc(-c3ccnc(NCCNc4ccc([N+](=O)[O-])cn4)n3)cc2)c1OC [N-[(2,3-dimethoxyphenyl)methyl]{4-[2-({2-[(5-nitro(2-pyridyl))amino]ethyl}amino)pyrimidin-4-yl]phenyl}carboxamide]
17 | ≤ 10 | O=C(NCC1CCCO1)c1ccc(-c2ccnc(NCCNc3ccc([N+](=O)[O-])cn3)n2)cc1 (stereo not shown) [{4-[2-({2-[(5-nitro(2-pyridyl))amino]ethyl}amino)pyrimidin-4-yl]phenyl}-N-(oxolan-2-ylmethyl)carboxamide]
18 | ≤ 1 | N#CCNC(=O)c1cnc(NCCNc2ccc([N+](=O)[O-])cn2)nc1-c1ccc(C#N)cc1 [N-(cyanomethyl)[4-(4-cyanophenyl)-2-({2-[(5-nitro(2-pyridyl))amino]ethyl}amino)pyrimidin-5-yl]carboxamide]
19 | ≤ 10 | CCOC(=O)c1cnc(NCCNc2ccc([N+](=O)[O-])cn2)nc1-c1cc(Cl)cc(Cl)c1 [ethyl 4-(3,5-dichlorophenyl)-2-({2-[(5-nitro(2-pyridyl))amino]ethyl}amino)-pyrimidine-5-carboxylate]
20 | ≤ 10 | CCOC(=O)c1cnc(NCCNc2ccc([N+](=O)[O-])cn2)nc1-c1cnc2ccccc2c1 [ethyl 2-({2-[(5-nitro(2-pyridyl))amino]ethyl}amino)-4-(3-quinolyl)pyrimidine-5-carboxylate]
21 | ≤ 1 | CCOC(=O)c1c(-c2ccc(C#N)cc2)nc(NCCNc2ccc([N+](=O)[O-])cn2)nc1-c1ccc([N+](=O)[O-])cc1 [ethyl 4-(4-cyanophenyl)-2-({2-[(5-nitro(2-pyridyl))amino]ethyl}amino)-6-(4-nitrophenyl)pyrimidine-5-carboxylate]
22 | ≤ 10 | O=[N+]([O-])c1ccc(NCCNc2nccc(-c3cnccn3)n2)nc1 [{2-[(5-nitro(2-pyridyl))amino]ethyl}(4-pyrazin-2-ylpyrimidin-2-yl)amine]
23 | ≤ 1 | CCOC(=O)c1cnc(NCCNc2ccc([N+](=O)[O-])c(N)n2)nc1-c1ccc(N2CCOCC2)cc1 [ethyl 2-({2-[(6-amino-5-nitro(2-pyridyl))amino]-ethyl}amino)-4-(4-morpholin-4-ylphenyl)pyrimidine-5-carboxylate]
24 | ≤ 1 | N#Cc1ccc(-c2nc(NCCNc3ccc([N+](=O)[O-])cn3)ncc2C#N)cc1 [4-(4-cyanophenyl)-2-({2-[(5-nitro(2-pyridyl))amino]ethyl}amino)pyrimidine-5-carbonitrile]
25 | ≤ 10 | CCOC(=O)c1cnc(NCCNc2ccc([N+](=O)[O-])cn2)nc1-c1cccc(F)c1 [ethyl 4-(3-fluorophenyl)-2-({2-[(5-nitro(2-pyridyl))amino]ethyl}amino)pyrimidine-5-carboxylate]
26 | ≤ 1 | CCOC(=O)c1cnc(NCCNc2ccc(C(F)(F)F)cn2)nc1-c1ccc(C#N)cc1 [ethyl 4-(4-cyanophenyl)-2-[(2-{[5-(trifluoromethyl)(2-pyridyl)]amino}ethyl)-amino]pyrimidine-5-carboxylate]
27 | ≤ 10 | O=[N+]([O-])c1ccc(NCCNc2ncc(-c3ccccc3)c(-c3ccc(O)cc3)n2)nc1 [4-[2-({2-[(5-nitro(2-pyridyl))amino]ethyl}amino)-5-phenylpyrimidin-4-yl]phenol]
28 | ≤ 10 | CCOC(=O)c1cnc(NCCNc2ccc([N+](=O)[O-])cn2)nc1-c1cncc(Br)c1 [ethyl 4-(5-bromo(3-pyridyl))-2-({2-[(5-nitro(2-pyridyl))amino]ethyl}amino)pyrimidine-5-carboxylate]
